The test system of one series is T. muris. The series is described as follows: adult whipworm whole-worm motility inhibition assay. The series is classed as cell-based, Trichuris muris. The note with it: for worm motility inhibition (in words) / motility inhibition: adult T. muris; for worm motility inhibition (in words): 30 μM (Figure 1); for worm motility inhibition, SAR statement (in words): T. muris, 50 μM, 48 h (Figures 3-5); for motility inhibition: 30 μM.

The next series deals with CK2α/PI3Kγ. The note with it: cited from earlier work.
The test system of the next series is A. ceylanicum. The series is described as follows: adult hookworm whole-worm motility inhibition assay. The series is classed as cell-based, Ancylostoma ceylanicum. The settings on record: for worm motility inhibition, SAR statement (in words): A. ceylanicum, 30 μM, 48 h (Figures 3-5); for IC50: motility.
A further series deals with HepG2 cells. Put plainly: HepG2 MTT viability assay. The settings on record: for CC50: read-out: HEPG2 cells CC50 μM (95% CI) 24 h, MTT viability, 24 h.
The subject of another series is MDR1 (P-gp). The series is described as follows: in vitro. The settings on record: dog, MDCK-MDR1.
A further series in a line: in vitro. The settings on record: dog.
[1] abbreviates: read-out: T. muris IC50 μM (95% CI) 24 h, motility, 24 h.
Setting [2] is: read-out: T. muris IC50 μM (95% CI) 48 h, motility, 48 h.
Setting [3] is: read-out: A. ceylanicum IC50 μM (95% CI) 24 h, 24 h.
Setting [4] is: read-out: A. ceylanicum IC50 μM (95% CI) 48 h, 48 h.

“Also recorded” adds a separate entry of the source. Where two headings read alike, the source gives them in different places.

Turning to `O=C1NC(=O)/C(=C/c2ccc(-c3ccc(F)cc3O)o2)S1` [AS-252424], in the series on T. muris, the “worm motility inhibition (in words)” value is given as “excellent worm motility inhibition”. Moreover, the “selectivity for PI3Kγ over PI3Kα” value in the series on CK2α/PI3Kγ is recorded as 30 fold. For the same compound, in the series with CK2α/PI3Kγ (read-out: IC50 (dual inhibitor of CK2α/PI3Kγ)), the IC50 is 0.03 µM.

With `N[C@@H]1CCCN(c2c(/C=C3\SC(=O)NC3=O)cccc2-c2ccccc2)C1` [AZD1208], the “worm motility inhibition (in words)” value in the series with T. muris is “inactive”.

Regarding `O=C(O)c1ccc2c(c1)nc(Nc1cccc(Cl)c1)c1ccncc12` [CX-4945], the “worm motility inhibition (in words)” value in the series with T. muris is “did not show measurable inhibition of worm motility”.

Turning to `CN1CCCN(C(=O)c2cccc(-c3ccc(C=C4C(=O)Nc5ccc(N)cc54)o3)c2)CC1` [Compound 7], the “worm motility inhibition, SAR statement (in words)” value with T. muris was “complete loss of activity; also recorded: inactive against both species”; with A. ceylanicum, “not against A. ceylanicum; also recorded: inactive against both species”.

As a reminder, the CC50 is the concentration at which the toxic effect on the cells reaches its halfway point. On to `CN1CCCN(C(=O)c2cccc(-c3ccc(C=C4C(=O)Nc5c(Cl)cccc54)o3)c2)CC1` [Compound 8], for which the CC50 in the series with HepG2 cells stood at 15.5 µM. For the same compound, in the series with HepG2 cells (relative to CX-6258), the “fold increase in cytotoxicity (measured by CC50)” value amounted to 2.4 fold. Besides, the “worm motility inhibition, SAR statement (in words)” value with T. muris is “neither an increase nor decrease to activity”; with A. ceylanicum it was “hookworm selective; also recorded: neither an increase nor decrease to activity”. Besides, the IC50 with T. muris (setting [1]) was 42 µM; in the series with T. muris (setting [2]), more than 90 µM; in the series on A. ceylanicum (setting [3]), 40 µM; with A. ceylanicum (setting [4]) it was 21 µM.

As to `Cc1ccc2c(c1)C(=Cc1ccc(-c3cccc(C(=O)N4CCCN(C)CC4)c3)o1)C(=O)N2` [Compound 10], the “worm motility inhibition, SAR statement (in words)” value in the series on T. muris and with A. ceylanicum was “inactivated the inhibition of both species” throughout.

For the compound `CN1CCCN(C(=O)c2cccc(-c3ccc(C=C4C(=O)Nc5ccccc54)o3)c2)CC1` [Compound 11], the CC50 in the series on HepG2 cells was found to be 22.2 µM. Further, the “worm motility inhibition, SAR statement (in words)” value in the series on T. muris and in the series with A. ceylanicum was “neither an increase nor decrease to activity” each time. Further, the IC50 in the series with T. muris (setting [1]) was more than 90 µM; in the series with T. muris (setting [2]), more than 90 µM; in the series on A. ceylanicum (setting [3]) it was 25.2 µM; in the series with A. ceylanicum (setting [4]), 8.8 µM.

For the compound `C[C@H](NC(=O)c1c(N)nn2cccnc12)c1cc2cccc(C#Cc3cnn(C)c3)c2c(=O)n1-c1ccccc1` [IPI-549], the “worm motility inhibition (in words)” value with T. muris is listed as “did not show measurable inhibition of worm motility”.

On to `CN1CCC(CNc2ccc3ncc(-c4cccc(OC(F)(F)F)c4)n3n2)CC1` [SGI-1776], for which, in the series on T. muris, the “worm motility inhibition (in words)” value is reported as “excellent inhibition”.

As for `O=C1NC(=O)/C(=C/c2cccc(C(F)(F)F)c2)S1` [SMI-4a], the motility inhibition in the series with T. muris (@48 h (Figure 1B)) was determined as 71%.

For the compound `CCCOc1ccc(/C=C2\SC(=O)NC2=O)cc1` [SMI-16a], the motility inhibition with T. muris (@48 h (Figure 1B)) turned out to be 57%.

Take `N#Cc1c(-c2ccccc2)cc(-c2cc(Br)ccc2O)[nH]c1=O` [TCS-PIM1]: the “worm motility inhibition (in words)” value in the series with T. muris was “excellent inhibition”. This compound displayed a motility inhibition with T. muris (relative to DMSO controls) of 100%.

For the compound `Cc1ccc(-c2csc3ncnc(SCCC(=O)O)c23)cc1` [TTP22], in the series on T. muris, the “worm motility inhibition (in words)” value is reported as “did not show measurable inhibition of worm motility”.

`CCCSc1ccc2nc(NC(=O)OC)[nH]c2c1` [albendazole]: the IC50 was more than 300 µM in the series on T. muris (Trichuris muris, 24 h, read-out: T. muris IC50 μM (95% CI) 24 h) and more than 300 µM in the series with T. muris (Trichuris muris, 48 h, read-out: T. muris IC50 μM (95% CI) 48 h).

What is called Papp A→B is the apparent permeability from the apical to the basolateral side of a cell layer. A higher Papp A→B goes with ready permeation. In general, Papp B→A refers to the apparent permeability from the basolateral to the apical side of a cell layer. In general, efflux ratio refers to a quotient of directional permeabilities that is used to spot active efflux. With `C[C@H]1O[C@@H](O[C@H]2[C@@H](O)C[C@H](O[C@H]3[C@@H](O)C[C@H](O[C@H]4CC[C@@]5(C)[C@H](CC[C@@H]6[C@@H]5C[C@@H](O)[C@]5(C)[C@@H](C7=CC(=O)OC7)CC[C@]65O)C4)O[C@@H]3C)O[C@@H]2C)C[C@H](O)[C@@H]1O` [digoxin], in the series with MDR1 (P-gp), the Papp A→B amounted to 0.151 ×10⁻⁶ cm/s, the Papp B→A amounted to 3.43 ×10⁻⁶ cm/s and the efflux ratio was 22.8. This compound had a recovery in the series “in vitro” (MDCK-MDR1, mean solution recovery % A to B, MDR1-MDCK II cells) of 77.5%. The compound also returned a recovery in the series “in vitro” (MDCK-MDR1, mean solution recovery % B to A, MDR1-MDCK II cells) of 92.7%. Moreover, in the series with MDR1-MDCK II cells (MDR1-MDCK II cells), the “Rank Papp” value is “low”.

As to `CC(C)C[C@H]1C(=O)O[C@H](Cc2ccc(N3CCOCC3)cc2)C(=O)N(C)[C@@H](CC(C)C)C(=O)O[C@H](C)C(=O)N(C)[C@@H](CC(C)C)C(=O)O[C@H](Cc2ccc(N3CCOCC3)cc2)C(=O)N(C)[C@@H](CC(C)C)C(=O)O[C@H](C)C(=O)N1C` [emodepside], the IC50 with T. muris (setting [1]) is 0.0143 µM; in the series with T. muris (setting [2]), 0.0345 µM; with A. ceylanicum (setting [3]) it was 0.0033 µM; in the series with A. ceylanicum (setting [4]), 0.0011 µM.

Regarding `COCCc1ccc(OCC(O)CNC(C)C)cc1` (stereo not drawn) [metoprolol], in the series with MDR1 (P-gp), the Papp A→B is 25.6 ×10⁻⁶ cm/s. The recovery in the series “in vitro” (MDCK-MDR1) turned out to be 97.4%. Besides, in the series with MDR1-MDCK II cells (MDCK-MDR1), the “Rank Papp” value is given as “high”.

Compound `CC(C)(C)NCC(O)COc1cccc2c1CC(O)C(O)C2` (stereo not drawn) [nadolol] registered a Papp A→B in the series with MDR1 (P-gp) of 0.05 ×10⁻⁶ cm/s. Also, the recovery in the series “in vitro” (MDCK-MDR1) came out at 83.1%. The “Rank Papp” value in the series with MDR1-MDCK II cells (MDCK-MDR1) was “low”.

Consider ivermectin, for which the IC50 was more than 300 µM with T. muris (setting [1]) and 89.6 µM in the series on T. muris (setting [2]).

These data come from PMC11995402 (ACS infectious diseases, 2025).
